Reference: PubChem BioAssay (NCI)
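Grown in 96-well plates, cells were treated for 48 hours with each compound at five concentrations. Insufficient inhibition: endpoint recorded as highest concentration tested. TGI is the concentration that stops growth completely.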

Columns and labels:
Assay in all cases: DTP human tumour cell line panel, 48 h
[1] = test system: LOX IMVI melanoma
[2] = test system: MDA-MB-231 breast
[3] = test system: CAKI-1 renal
[4] = test system: TK-10 renal
[5] = test system: OVCAR-3 ovarian
[6] = test system: EKVX NSCLC
[7] = test system: IGROV1 ovarian
[8] = test system: COLO 205 colon
[9] = test system: NCI-H226 lung
[10] = test system: SF-268 CNS
[11] = test system: MDA-MB-435
[12] = test system: BT-549 breast
[13] = test system: HCC-2998 colon
[14] = test system: SW-620 colon
[15] = test system: SR leukemia
[16] = test system: HL-60(TB) leukemia
[17] = test system: MDA-N

Question: COc1cc([C@@H]2c3cc4c(cc3[C@@H](Nc3ccccc3C(=O)c3ccccc3)[C@H]3COC(=O)[C@H]23)OCO4)cc(OC)c1OC was tested. Which TGI [1] did it give?
Answer: > 100 µM

Question: And the TGI [2]?
Answer: > 66.1 µM

Question: What about the TGI [3] of the same compound?
Answer: > 100 µM

Question: What about the TGI [4] of the same compound?
Answer: > 100 µM

Question: And the TGI [5]?
Answer: > 100 µM

Question: What about the TGI [6] of the same compound?
Answer: > 100 µM

Question: What about the TGI [7] of the same compound?
Answer: 90.5 µM

Question: And the TGI [8]?
Answer: 1.42 µM

Question: And the TGI [9]?
Answer: > 100 µM

Question: What about the TGI [10] of the same compound?
Answer: > 100 µM

Question: What about the TGI [11] of the same compound?
Answer: 1.26 µM

Question: What about the TGI [12] of the same compound?
Answer: > 100 µM

Question: What about the TGI [13] of the same compound?
Answer: > 28.7 µM

Question: What about the TGI [14] of the same compound?
Answer: > 81.6 µM

Question: Which TGI [2] does the source give for O=C(CCC(=O)CC(O)(C(F)(F)F)C(F)(F)F)CC(O)(C(F)(F)F)C(F)(F)F here?
Answer: > 100 µM

Question: And the TGI [15]?
Answer: > 100 µM

Question: What about the TGI [4] of the same compound?
Answer: > 100 µM

Question: What about the TGI [6] of the same compound?
Answer: > 100 µM

Question: And the TGI [7]?
Answer: > 100 µM

Question: What about the TGI [8] of the same compound?
Answer: 96.3 µM

Question: What about the TGI [16] of the same compound?
Answer: 91.2 µM

Question: And the TGI [9]?
Answer: 69.5 µM

Question: And the TGI [10]?
Answer: > 100 µM

Question: And the TGI [11]?
Answer: > 100 µM

Question: And the TGI [13]?
Answer: > 100 µM

Question: What about the TGI [14] of the same compound?
Answer: > 100 µM

Question: CCC/C=C1\CCC(CN(C)C)C1=O (stereo unspecified) was tested. Which TGI [1] did it give?
Answer: 20.8 µM

Question: What about the TGI [3] of the same compound?
Answer: 4.59 µM

Question: What about the TGI [15] of the same compound?
Answer: 8.98 µM

Question: What about the TGI [4] of the same compound?
Answer: 14.6 µM

Question: And the TGI [5]?
Answer: 12.3 µM

Question: What about the TGI [6] of the same compound?
Answer: 12.3 µM

Question: What about the TGI [7] of the same compound?
Answer: 34.4 µM

Question: And the TGI [8]?
Answer: 10.7 µM

Question: And the TGI [16]?
Answer: 31.5 µM

Question: And the TGI [9]?
Answer: 35.1 µM

Question: And the TGI [10]?
Answer: 19.8 µM

Question: And the TGI [13]?
Answer: 29.5 µM

Question: And the TGI [14]?
Answer: 11.6 µM

Question: For C=C1C(=O)O[C@H]2[C@H]3O[C@@H](C[C@@H]12)[C@@]1(C)CC[C@H](O1)[C@H](C)CCC[C@H]3C, which TGI [1] is on record?
Answer: 2.94 µM

Question: And the TGI [2]?
Answer: 3.12 µM

Question: What about the TGI [3] of the same compound?
Answer: 2.58 µM

Question: And the TGI [15]?
Answer: 0.448 µM

Question: And the TGI [4]?
Answer: 2.98 µM

Question: And the TGI [5]?
Answer: 2.37 µM

Question: What about the TGI [6] of the same compound?
Answer: 2.84 µM

Question: What about the TGI [7] of the same compound?
Answer: 2.74 µM

Question: And the TGI [8]?
Answer: 3.33 µM

Question: And the TGI [16]?
Answer: 1.27 µM

Question: And the TGI [9]?
Answer: 3.87 µM

Question: And the TGI [10]?
Answer: 3.34 µM

Question: And the TGI [11]?
Answer: 2.61 µM

Question: And the TGI [12]?
Answer: 2.17 µM

Question: And the TGI [13]?
Answer: 2.57 µM

Question: And the TGI [14]?
Answer: 4.26 µM

Question: For CCCCCCCCCCCCc1ccc(S(=O)(=O)O)cc1.[Zn+2], which TGI [1] is on record?
Answer: > 100 µM

Question: And the TGI [2]?
Answer: > 100 µM

Question: And the TGI [17]?
Answer: > 100 µM

Question: And the TGI [3]?
Answer: > 100 µM

Question: What about the TGI [4] of the same compound?
Answer: > 100 µM

Question: What about the TGI [5] of the same compound?
Answer: > 100 µM

Question: What about the TGI [6] of the same compound?
Answer: > 100 µM

Question: And the TGI [7]?
Answer: 77.2 µM

Question: And the TGI [8]?
Answer: > 100 µM

Question: What about the TGI [16] of the same compound?
Answer: > 100 µM

Question: And the TGI [9]?
Answer: > 100 µM

Question: And the TGI [10]?
Answer: > 100 µM

Question: What about the TGI [11] of the same compound?
Answer: > 100 µM

Question: What about the TGI [13] of the same compound?
Answer: > 100 µM

Question: What about the TGI [14] of the same compound?
Answer: > 100 µM

Question: With CCOC(=O)C[n+]1cccc(C2(c3cc4ccccc4[nH]3)OCCO2)c1 as the compound, how does the TGI [1] read?
Answer: > 100 µM

Question: And the TGI [2]?
Answer: > 100 µM

Question: And the TGI [3]?
Answer: > 100 µM

Question: What about the TGI [15] of the same compound?
Answer: > 100 µM

Question: And the TGI [4]?
Answer: > 100 µM

Question: And the TGI [5]?
Answer: > 100 µM

Question: And the TGI [6]?
Answer: > 100 µM

Question: What about the TGI [7] of the same compound?
Answer: > 100 µM

Question: What about the TGI [8] of the same compound?
Answer: > 100 µM

Question: And the TGI [16]?
Answer: > 100 µM

Question: What about the TGI [9] of the same compound?
Answer: > 100 µM

Question: And the TGI [10]?
Answer: > 100 µM

Question: What about the TGI [11] of the same compound?
Answer: > 100 µM

Question: What about the TGI [12] of the same compound?
Answer: > 100 µM

Question: And the TGI [13]?
Answer: > 100 µM

Question: And the TGI [14]?
Answer: > 100 µM

Question: For CCOC(=O)C(CC(C)C)NC(=O)CSc1nnc(COc2ccc(Cl)cc2)n1-c1ccccc1 (stereo unspecified), which TGI [1] is on record?
Answer: 28.9 µM

Question: What about the TGI [2] of the same compound?
Answer: 30.6 µM

Question: And the TGI [15]?
Answer: 15.6 µM

Question: And the TGI [4]?
Answer: 33.1 µM

Question: And the TGI [5]?
Answer: 24.7 µM

Question: What about the TGI [7] of the same compound?
Answer: 29.2 µM

Question: What about the TGI [8] of the same compound?
Answer: 36.2 µM

Question: And the TGI [16]?
Answer: 43.4 µM

Question: What about the TGI [9] of the same compound?
Answer: 48.5 µM

Question: And the TGI [10]?
Answer: 35.6 µM

Question: And the TGI [11]?
Answer: 35.6 µM

Question: What about the TGI [12] of the same compound?
Answer: 32.1 µM

Question: What about the TGI [13] of the same compound?
Answer: 27.4 µM

Question: What about the TGI [14] of the same compound?
Answer: 49.7 µM

Question: Which TGI [1] does the source give for COC(=O)C1C=CCON2CCc3c(n(C)c4ccccc34)C12 (stereo unspecified) here?
Answer: > 100 µM

Question: And the TGI [3]?
Answer: > 100 µM

Question: And the TGI [15]?
Answer: > 100 µM

Question: What about the TGI [4] of the same compound?
Answer: > 100 µM

Question: And the TGI [5]?
Answer: > 100 µM

Question: And the TGI [6]?
Answer: > 100 µM

Question: What about the TGI [7] of the same compound?
Answer: > 100 µM

Question: What about the TGI [8] of the same compound?
Answer: > 100 µM

Question: What about the TGI [16] of the same compound?
Answer: > 100 µM

Question: What about the TGI [9] of the same compound?
Answer: > 100 µM

Question: What about the TGI [10] of the same compound?
Answer: > 100 µM

Question: What about the TGI [13] of the same compound?
Answer: > 100 µM

Question: What about the TGI [14] of the same compound?
Answer: > 100 µM

Question: What does the source list for O=C1c2ccccc2C(=O)c2c(O)c(NCCCNCCO)cc(O)c21?
Answer: TGI [3]: 22.4 µM; TGI [4]: 22.1 µM; TGI [5]: 26.6 µM; TGI [6]: 28.3 µM; TGI [7]: 28.8 µM; TGI [8]: 20.8 µM; TGI [16]: 19.7 µM; TGI [9]: 22 µM; TGI [10]: 23.1 µM; TGI [13]: 17 µM; TGI [14]: 18.4 µM

Question: For COC(=O)[C@H]1NC(=O)CCSSC1(C)C, which TGI [1] is on record?
Answer: > 100 µM

Question: What about the TGI [2] of the same compound?
Answer: > 100 µM

Question: And the TGI [3]?
Answer: > 100 µM

Question: What about the TGI [4] of the same compound?
Answer: > 100 µM

Question: And the TGI [5]?
Answer: > 100 µM

Question: And the TGI [6]?
Answer: > 100 µM

Question: And the TGI [7]?
Answer: > 100 µM

Question: And the TGI [8]?
Answer: > 100 µM

Question: What about the TGI [16] of the same compound?
Answer: > 100 µM

Question: And the TGI [9]?
Answer: > 100 µM

Question: What about the TGI [10] of the same compound?
Answer: > 100 µM

Question: What about the TGI [11] of the same compound?
Answer: > 100 µM

Question: What about the TGI [12] of the same compound?
Answer: > 100 µM

Question: What about the TGI [14] of the same compound?
Answer: > 100 µM

Question: Which results are given for CCCC(C)n1c(C)nc2c1C(=O)c1ccccc1C2=O (stereo unspecified)?
Answer: TGI [1]: 23.6 µM; TGI [15]: > 100 µM; TGI [4]: > 100 µM; TGI [5]: 85.1 µM; TGI [6]: > 100 µM; TGI [7]: > 100 µM; TGI [8]: > 100 µM; TGI [16]: > 100 µM; TGI [9]: > 100 µM; TGI [10]: > 100 µM; TGI [13]: > 100 µM; TGI [14]: > 100 µM

Question: O=C1C=CC(=C(c2ccc(O)cc2)c2ccc(O)cc2)C=C1 was tested. Which TGI [1] did it give?
Answer: 22.9 µM

Question: What about the TGI [3] of the same compound?
Answer: 32.7 µM

Question: And the TGI [15]?
Answer: 7.37 µM

Question: And the TGI [4]?
Answer: 33.4 µM

Question: What about the TGI [5] of the same compound?
Answer: 19.9 µM

Question: And the TGI [6]?
Answer: 28.6 µM

Question: What about the TGI [7] of the same compound?
Answer: 28 µM

Question: What about the TGI [8] of the same compound?
Answer: 32.4 µM

Question: And the TGI [16]?
Answer: 13.4 µM

Question: And the TGI [9]?
Answer: 37.5 µM

Question: What about the TGI [10] of the same compound?
Answer: 29.7 µM

Question: And the TGI [13]?
Answer: 27.6 µM

Question: And the TGI [14]?
Answer: 25.5 µM

Question: What does the source list for CN(C)c1ccc(C=C2C(=O)N(c3ccccc3)N(c3ccccc3)C2=O)cc1?
Answer: TGI [1]: > 100 µM; TGI [2]: > 100 µM; TGI [17]: > 100 µM; TGI [15]: > 100 µM; TGI [4]: > 100 µM; TGI [5]: > 100 µM; TGI [6]: > 100 µM; TGI [7]: > 100 µM; TGI [8]: > 100 µM; TGI [9]: > 100 µM; TGI [10]: > 100 µM; TGI [11]: > 100 µM; TGI [14]: > 100 µM
